Measurements reported in patent US20080280939A1, “Combination of Organic Compounds” (priority 2004, published 2008).

What was measured:
[1] = 4-week toxicity study in rats; assay type: in vivo
Protocol: (§1) Rapamycin or derivatives thereof are well tolerated at dosages required for use in accordance with the present invention. For example, the NTEL for Compound A in a 4-week toxicity study is 0.5 mg/kg/day in rats and 1.5 mg/kg/day in monkeys.

[2] = 4-week toxicity study in monkeys; assay type: in vivo
Protocol: as §1

`CO[C@H]1C[C@@H]2CC[C@@H](C)[C@@](O)(O2)C(=O)C(=O)N2CCCC[C@H]2C(=O)O[C@H]([C@H](C)C[C@@H]2CC[C@@H](OCCO)[C@H](OC)C2)CC(=O)[C@H](C)/C=C(\C)[C@@H](O)[C@@H](OC)C(=O)[C@H](C)C[C@H](C)/C=C/C=C/C=C/1C` [Compound A, 40-0-(2-hydroxyethyl)-rapamycin] gave an NTEL [1] of 0.5 mg/kg/day and an NTEL [2] of 1.5 mg/kg/day.
